# Laboratory results: ChEMBL document CHEMBL1201862, “PubChem BioAssay data set” (2004)
# Active and inactive are the calls of the source. Rule as the data show it, for most assays here: actives have a measured EC50 and inactives only a lower limit.
# Experiments:
# [1] = target: T1, Microphthalmia-associated transcription factor (Homo sapiens, UniProt O75030); test: reducers of TRPM1 reporter luminescence, concentration series – cell-based, SK-MEL-5, cherry-picked, set 3, MITF inhibitor project, dose response (AID 493073); type: functional;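 also: SK-MEL-5 melanoma cells with luciferase driven by the MITF target TRPM1 promoter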
# T1 sequence (O75030 whole entry): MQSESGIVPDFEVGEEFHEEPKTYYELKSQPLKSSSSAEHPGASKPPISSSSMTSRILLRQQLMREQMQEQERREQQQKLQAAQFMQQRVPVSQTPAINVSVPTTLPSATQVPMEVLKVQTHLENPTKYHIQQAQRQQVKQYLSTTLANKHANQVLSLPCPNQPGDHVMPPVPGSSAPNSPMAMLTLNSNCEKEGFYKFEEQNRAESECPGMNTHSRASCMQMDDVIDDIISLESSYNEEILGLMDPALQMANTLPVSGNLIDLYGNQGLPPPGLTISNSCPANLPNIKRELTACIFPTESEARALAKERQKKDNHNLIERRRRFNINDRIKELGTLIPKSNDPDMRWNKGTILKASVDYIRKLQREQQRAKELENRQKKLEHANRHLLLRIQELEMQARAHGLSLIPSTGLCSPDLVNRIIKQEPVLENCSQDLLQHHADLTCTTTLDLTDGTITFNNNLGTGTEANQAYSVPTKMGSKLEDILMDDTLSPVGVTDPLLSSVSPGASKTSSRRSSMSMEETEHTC
# [2] = NIH3T3 cell viability loss – ATP luminescence, mouse fibroblasts, counter-screen, dose response (AID 2010); type: functional, cell-based;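 also: cells exposed to compound for about 90 hours before reading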
# [3] = target: T2, Ubiquitin-conjugating enzyme E2 N (Homo sapiens, UniProt P61088); type: functional;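 also: Dose-response confirmation in a TR-FRET assay detecting UBC13-driven polyubiquitin chain formation, inhibition measured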
# T2 sequence (P61088 whole entry): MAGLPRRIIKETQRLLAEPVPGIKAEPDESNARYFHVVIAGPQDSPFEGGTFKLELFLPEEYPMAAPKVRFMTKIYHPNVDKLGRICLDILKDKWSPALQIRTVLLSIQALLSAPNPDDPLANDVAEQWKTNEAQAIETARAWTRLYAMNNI
# [4] = Trypanosoma cruzi growth suppression in host cells – NIH3T3 host cells, beta-gal luminescence, confirmation (AID 2044); type: functional, cell-based;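 also: intracellular parasites grown in NIH/3T3 mouse fibroblasts as host cells; luminescent beta-galactosidase reporter signal from transgenic T. cruzi replicating inside host cells; inhibitors lower the luminescence signal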
# BJ [5] = test: cells; type: functional, cell-based; details: Homo sapiens
# BJ [6] = test: BJ-TERT-LT-ST fibroblast viability loss – cell-based, RAS-independent, luminescence, dose response (AID 1935); type: functional; details: Homo sapiens;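 also: BJ fibroblasts immortalized with TERT plus LT and ST oncogenes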
# [7] = DRD fibroblast viability loss – cell-based, non-viral oncogenic, luminescence, dose response (AID 1934); type: functional; details: Homo sapiens
# BJ [8] = test: BJ-TERT fibroblast viability loss – cell-based, RAS-independent, luminescence, dose response (AID 1933); type: functional; details: Homo sapiens
# [9] = HEK-293T viability loss after treatment – luminescence, T-cell screen hits, cytotoxicity control for TCR NF-kB inhibitor project, dose response (AID 489026); type: functional, cell-based;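 also: cells exposed to compound about 14 hours before the viability readout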
# Paired box protein Pax-8 = Paired box protein Pax-8 (Homo sapiens, UniProt Q06710); test: PAX8 transcriptional activity inhibition in RMG-I – RMG-I cells, luciferase, cherry-pick, dose response (AID 687027); type: functional, cell-based;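 also: luciferase reporter driven by Pax8 target thyroperoxidase promoter measured by SteadyGlo luminescence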
# Chain of Paired box protein Pax-8 (Q06710 whole entry): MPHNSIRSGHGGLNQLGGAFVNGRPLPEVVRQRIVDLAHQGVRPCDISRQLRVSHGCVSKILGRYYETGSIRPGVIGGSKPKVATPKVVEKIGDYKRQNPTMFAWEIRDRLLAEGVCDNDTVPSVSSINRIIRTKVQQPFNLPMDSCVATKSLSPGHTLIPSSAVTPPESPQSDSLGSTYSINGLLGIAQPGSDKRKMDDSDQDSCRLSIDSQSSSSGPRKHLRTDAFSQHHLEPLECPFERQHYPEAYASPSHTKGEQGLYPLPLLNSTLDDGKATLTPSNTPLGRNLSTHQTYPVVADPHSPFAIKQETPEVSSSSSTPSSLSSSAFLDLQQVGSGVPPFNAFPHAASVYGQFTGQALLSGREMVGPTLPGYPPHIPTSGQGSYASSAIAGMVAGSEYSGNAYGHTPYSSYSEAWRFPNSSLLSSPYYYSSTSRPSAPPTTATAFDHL
# [10] = OVCAR8 cell viability loss – plate reader, dry powder samples, PAX8 project, dose response (AID 743197); type: functional, cell-based; details: OVCAR-8
# [11] = general cell-killing toxicity readout – plate reader, dry powder samples, cytotoxicity control for PAX8 inhibitor project, dose response (AID 743021); type: functional, cell-based
# [12] = OVCAR-3 cell viability loss – plate reader, dry powder samples, PAX8 inhibitor project, dose response (AID 743044); type: functional, cell-based
# [13] = fluconazole-exposed Candida albicans growth modulators – fluorescence, retest, confirmation (AID 2467); type: functional, cell-based
# [14] = viability of HCT116 lacking mutant beta-catenin – cell-based, human colon tumor, dose response (AID 1045); type: functional;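 also: HCT116 colon tumor cells with beta catenin knocked out; cells exposed to compound for 60 hours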
# [15] = target: T3, Heat shock factor protein 1 (Mus musculus, UniProt P38532); test: enhancement of HSF1-driven luciferase signal – cell-based, NIH3T3, luminescence, dose retest, confirmation (AID 435004); type: functional;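 also: stress induced by proteasome inhibitor MG132 added 30 min after compound; luciferase reporter driven by HSF1 response element in NIH3T3 cells; actives raise luminescence as potentiators of the MG132 stress response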
# T3 sequence (P38532 whole entry): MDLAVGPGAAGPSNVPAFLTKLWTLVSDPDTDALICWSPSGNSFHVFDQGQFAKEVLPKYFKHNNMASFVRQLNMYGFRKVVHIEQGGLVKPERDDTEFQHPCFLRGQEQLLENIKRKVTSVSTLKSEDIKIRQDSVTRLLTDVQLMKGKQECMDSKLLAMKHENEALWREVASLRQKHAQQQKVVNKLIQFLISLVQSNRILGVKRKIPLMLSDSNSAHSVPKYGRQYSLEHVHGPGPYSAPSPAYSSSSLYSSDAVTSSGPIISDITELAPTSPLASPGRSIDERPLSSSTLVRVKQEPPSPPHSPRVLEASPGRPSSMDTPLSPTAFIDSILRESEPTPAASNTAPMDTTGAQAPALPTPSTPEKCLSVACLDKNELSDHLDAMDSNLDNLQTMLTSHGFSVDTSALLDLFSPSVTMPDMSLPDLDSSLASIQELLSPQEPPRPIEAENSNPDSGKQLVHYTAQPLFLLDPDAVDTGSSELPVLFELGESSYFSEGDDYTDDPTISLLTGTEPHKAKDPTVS
# [16] = viability of PTEN-deleted HCT116 cells – cell-based, HCT116 PTEN knockout, dose response (AID 1047); type: functional;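 also: HCT116 colon tumor cells with PTEN knocked out; cells exposed to compound for 60 hours before readout; potency for loss of cell viability measured by luminescence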
# [17] = NIH-3T3 fibroblast cytotoxicity, dose response, cytotoxicity control, cell-based, fluorescence, Alamar Blue, secondary assay (AID 2327); type: functional;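 also: NIH-3T3 mouse fibroblasts cultured with fluconazole at 8 µg/mL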
# BJ [18] = test: growth inhibition of engineered Ras-driven BJ cells – cell-based, alamar blue fluorescence, cherrypicked samples, dose response (AID 2631); type: functional; details: Homo sapiens;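 also: confirmatory dose-response assay in RAS-dependent BJ fibroblasts engineered with TERT, LT and ST, with cytotoxicity read by fluorescence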
# H4 = test: Luminescence Cell-Based Dose Response HTS to Identify Activators of 5'UTR Stem-Loop Driven Prion Protein mRNA Translation in H4 Neuroglioblastoma Cells. [Related pubchem assays: 1829 (Project Summary), 1814 (Primary HTS)]; type: functional; details: Homo sapiens
# [19] = target: T4, Zinc finger protein mex-5 (Caenorhabditis elegans, UniProt Q9XUB2); test: potency of MEX-5 RNA-binding blockers – biochemical, C. elegans, fluorescence polarization, dose response (AID 1960)
# T4 sequence (Q9XUB2 whole entry): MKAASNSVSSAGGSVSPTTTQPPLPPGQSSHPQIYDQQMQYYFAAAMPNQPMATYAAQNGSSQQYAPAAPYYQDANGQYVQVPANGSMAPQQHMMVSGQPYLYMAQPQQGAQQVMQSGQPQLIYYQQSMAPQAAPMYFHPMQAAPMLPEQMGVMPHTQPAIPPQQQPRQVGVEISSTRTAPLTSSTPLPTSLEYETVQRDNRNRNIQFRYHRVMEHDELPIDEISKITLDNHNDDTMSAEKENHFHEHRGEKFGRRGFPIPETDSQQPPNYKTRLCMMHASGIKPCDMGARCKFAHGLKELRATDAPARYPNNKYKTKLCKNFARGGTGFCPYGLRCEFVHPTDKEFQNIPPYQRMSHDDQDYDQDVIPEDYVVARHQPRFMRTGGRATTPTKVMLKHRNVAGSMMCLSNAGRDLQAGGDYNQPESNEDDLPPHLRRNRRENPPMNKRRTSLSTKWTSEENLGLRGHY
# [20] = Luminescence Cell-Based Dose Confirmation HTS to Identify Activators of 5'UTR Stem-Loop Driven Alpha-Synuclein mRNA Translation in H4 Neuroglioblastoma Cells. [Related pubchem assays: 1829 (Project Summary), 1814 (Primary HTS)]; type: functional
# [21] = Luminescence Cell-Based Dose Response HTS to Identify Activators of Luciferase Translation or Activity in H4 […] Cells. [Related pubchem assays: 1829 (Project Summary), 1814 (Primary HTS)]; type: functional
# [22] = target: T5, RNA-binding protein pos-1 (Caenorhabditis elegans, UniProt G5EF15); test: disruptors of C. elegans POS-1 RNA interaction – biochemical, fluorescence polarization, dose response (AID 1964);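 also: purified POS-1 fused to maltose binding protein made in E. coli; potency of compounds blocking POS-1 binding to fluorescent RNA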
# T5 sequence (G5EF15 whole entry): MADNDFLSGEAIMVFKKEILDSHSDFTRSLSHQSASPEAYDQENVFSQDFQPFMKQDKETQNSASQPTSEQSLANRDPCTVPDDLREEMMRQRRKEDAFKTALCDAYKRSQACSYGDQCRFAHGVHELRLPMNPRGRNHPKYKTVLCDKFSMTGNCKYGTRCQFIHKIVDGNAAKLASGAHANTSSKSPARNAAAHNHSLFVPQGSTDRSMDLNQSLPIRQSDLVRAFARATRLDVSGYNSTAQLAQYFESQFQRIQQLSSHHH
# [23] = target: Heat shock protein HSP 90-alpha (Homo sapiens, UniProt P07900); type: functional, organism-based
# Hexokinase = target: T6, Hexokinase (Trypanosoma brucei, UniProt Q38C41); test: Confirmation assay for inhibitors of Trypanosoma brucei hexokinase 1-Analogue-first series. [Related pubchem assays (depositor defined):AID1430, AID1632, AID2516, AID2560, AID2579, AID2600, AID449725, AID492951]; type: functional
# T6 sequence (Q38C41 whole entry): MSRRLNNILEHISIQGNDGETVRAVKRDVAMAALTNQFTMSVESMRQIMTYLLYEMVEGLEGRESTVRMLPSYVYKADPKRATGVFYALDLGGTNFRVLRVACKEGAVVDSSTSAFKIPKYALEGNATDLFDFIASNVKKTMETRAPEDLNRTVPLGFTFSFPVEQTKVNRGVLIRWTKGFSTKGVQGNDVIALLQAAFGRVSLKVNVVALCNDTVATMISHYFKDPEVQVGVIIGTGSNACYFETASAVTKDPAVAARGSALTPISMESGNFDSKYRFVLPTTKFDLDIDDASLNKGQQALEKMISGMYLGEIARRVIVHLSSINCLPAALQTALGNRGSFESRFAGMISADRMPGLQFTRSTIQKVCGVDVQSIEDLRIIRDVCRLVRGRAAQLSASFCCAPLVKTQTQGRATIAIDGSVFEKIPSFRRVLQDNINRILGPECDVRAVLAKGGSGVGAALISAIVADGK
# H9c2 = test: cells; type: functional, cell-based; details: Rattus norvegicus, H9c2, Myocardium;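 also: confirmatory concentration-response retest of ultra-high-throughput screening hits for modulation of myocardial damage; cell death induced by hydrogen peroxide oxidative stress; compound pretreatment for 60 min then peroxide exposure for 2 h; potency is for protecting the cells against peroxide damage rather than for killing them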
smiles,measurement,setting,value
COCCCn1nc2c3c(ccc2c1O)C(=O)c1ccccc1C3=O,AC50,[1],8.86 µM (active)
COc1cc(-c2[nH]c(C(=O)NC3CCN(Cc4ccccc4)CC3)cc3c4ccccc4nc2-3)cc(OC)c1OC,EC50,[2],5.61 µM (active)
same,IC50,[3],> 20 µM (inactive)
same,EC50,[4],0.125 µM (active)
CC(Oc1ccc(Cl)cc1Cl)C(=O)Nc1ccncc1 (centres undefined),EC50,BJ [5],23.9 µM (active)
same,EC50,BJ [6],> 150 µM (not active)
same,EC50,[7],> 150 µM (not active)
same,EC50,BJ [8],> 150 µM (not active)
same,IC50,[9],> 80 µM (inactive)
C[C@@H]1CN([C@@H](C)CO)S(=O)(=O)c2ccc(C#Cc3ccccc3F)cc2O[C@H]1CN(C)C(=O)Cc1ccccc1,AC50,Paired box protein Pax-8,5.88 µM (active)
same,AC50,[10],37.6 µM (active)
same,AC50,[11],25.5 µM (active)
same,AC50,[12],14.5 µM (active)
CCOC(=O)C(=Cc1cc(=O)c(OC)co1)C(=O)OCC,EC50,BJ [5],7.57 µM (inconclusive)
same,EC50,BJ [6],4.28 µM (active)
same,EC50,[13],0.367 µM (active)
same,EC50,[14],2.93 µM (active)
same,EC50,[15],15.2 µM (active)
same,EC50,[7],4.24 µM (inconclusive)
same,EC50,BJ [8],8.75 µM (active)
same,EC50,[16],3.55 µM (active)
same,EC50,[17],8.28 µM (inconclusive)
same,EC50,BJ [18],0.592 µM (active)
O=C(/C=C/N1CCOCC1)c1ccc(-c2ccccc2)cc1,EC50,H4,57.7 µM (active)
same,EC50,[19],> 300 µM (not active)
same,EC50,[20],3.53 µM (active)
same,EC50,[21],36.8 µM (active)
same,EC50,[22],> 300 µM (not active)
same,AC50,[23],1.68 µM (active)
O=c1c2ccc(Br)cc2sn1-c1ccccc1,IC50,Hexokinase,3.61 µM (active)
O=C(Nc1ccccc1)n1sc2ccccc2c1=O,IC50,Hexokinase,> 25 µM (inactive)
O=C(O)c1ccc2c(c1)S(=O)(=O)c1cc(N3CCN(c4cnccn4)CC3)ccc1C2=O,IC50,H9c2,> 79 µM (inactive)
O=c1c2ccccc2on1-c1ccccc1,IC50,Hexokinase,> 25 µM (inactive)
COc1ccccc1C(=O)Nc1cc(Cl)ccc1C(=O)O,IC50,Hexokinase,> 25 µM (inactive)
